Reference: patent publication US20110191897A1, “Plants Tolerant to HPPD Inhibitor Herbicides” (Bayer CropScience AG, priority 2009, published 2011)

Key:
[1] = target: T1, Arabidopsis thaliana HPPD (SEQ ID No. 10) (Arabidopsis thaliana, UniProt P93836); assay: Spectrophotometric HPPD activity assay in presence of HPPD inhibitors; format: biochemical
T1 construct: made in house; host or cells: E. coli K-12 BL21 (pQE30-AtHPPD)
T1 sequence (P93836 with tags, fused parts or gaps): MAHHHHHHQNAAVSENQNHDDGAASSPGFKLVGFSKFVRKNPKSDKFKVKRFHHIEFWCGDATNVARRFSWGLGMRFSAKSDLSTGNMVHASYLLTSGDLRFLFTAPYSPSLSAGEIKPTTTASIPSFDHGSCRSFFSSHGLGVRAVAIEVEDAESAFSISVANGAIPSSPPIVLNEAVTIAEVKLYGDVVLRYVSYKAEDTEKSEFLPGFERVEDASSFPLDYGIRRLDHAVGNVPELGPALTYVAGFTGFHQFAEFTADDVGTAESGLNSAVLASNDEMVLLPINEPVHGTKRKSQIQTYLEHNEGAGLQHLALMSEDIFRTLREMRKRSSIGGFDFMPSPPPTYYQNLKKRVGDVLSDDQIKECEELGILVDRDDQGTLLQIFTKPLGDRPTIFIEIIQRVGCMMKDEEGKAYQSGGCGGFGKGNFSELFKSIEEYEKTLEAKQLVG

[2] = tested on: tobacco calli containing HPPD SEQ ID No. 7 (Blepharisma japonicum); assay: Rooting of transformed tobacco calli on tembotrione media; format: cell-based, Nicotiana tabacum; settings: 6 to 12 weeks
Experimental: The leaf disks were co-cultivated for 2 days with Agrobacterium tumefaciens cells containing either the binary vector FMP37ebv or AtHPPDbv. Then the leaf disks were transferred to a media allowing the regeneration of shoots for 6 weeks on MS (Musharige and Skoog, (1962), Physiol Plant 15(3): 473-497) media supplemented with BAP (1 mg/mL; Benzylaminopurine), carbenicillin (250 mg/mL), cefotaxine (250 mg/mL), kanamycin (75 mg/mL) and tembotrione (10^−6 M)
Regenerated calli were transferred on media to induce the development of roots for 6 to 12 weeks: MS (½), supplemented with carbenicillin (250 mg/mL), cefotaxine (250 mg/mL), kanamycin (75 mg/mL), and tembotrione (10^−6 M).
Regenerated shoot calli from a cell transformed with a nucleic acid sequence encoding an HPPD comprising SEQ ID No. 11 (Arabidopsis thaliana) or SEQ ID No. 7 (Blepharisma japonicum) were transferred to a media inducing rot growth which media was further supplemented with the HPPD inhibitor tembotrione for 6 to 12 weeks.

[3] = tested on: T0 rice plants with FMP37e; assay: Rice glasshouse trial, response to tembotrione; format: in vivo; settings: 100 g AI/ha, 7 DAT
Experimental: (§1) T0 rooted plantlets (either selected on phosphinothricin alone or on phosphinothricin supplemented with tembotrione) were transferred to soil in the glasshouse. Following an acclimation period, sufficiently grown plants were treated with the different HPPD inhibitor herbicides. As an example, T0 plants were sprayed with tembotrione of formulation type WP20 100 g Al/ha supplemented with ammonium sulfate and methyl ester raps oil. Seven days after the spray application, the symptoms due to the application of the herbicide were evaluated and compared the symptoms observed on wild type plants submitted to the same treatment.
(§2) The plants were classified in three categories based on the phenotype developed in response to the herbicide seven days after the treatment.

wild type rice plants = assay: Rice glasshouse trial, response to tembotrione; format: in vivo; settings: 100 g AI/ha, 7 DAT
Experimental: as §1, §2

CS(=O)(=O)c1ccc(C(=O)C2C(=O)CCCC2=O)c(Cl)c1COCC(F)(F)F [Tembotrione, 2-[2-chloro-4-(methylsulfonyl)-3-[(2,2,2,-tri-fluoroethoxy)methyl]benzoyl]-1,3-cyclo-hexanedione]
IC50 [1]: < 2510 nM | % Inhibition ([1]; 1.0E−05 M): 97% | % Inhibition ([1]; 2.5E−04 M): 97% | % Inhibition ([1]; 2.5E−05 M): 93% | % Inhibition ([1]; 2.5E−06 M): 82% | % Inhibition ([1]; 5.0E−06 M): 90% | inhibition at 5 µM ([1]; 5.0 × 10^−6M inhibitor (Table 4), read-out: percentage of inhibition): 92% | % Inhibition ([1]; 6.3E−05 M): 97% | % Elongation & rooting on 10^−6M tembotrione [2]: 65% | number of plants in Class I (no injuries) [3]: 1 | number of plants in Class II (injury: 10-40%) [3]: 6 | number of plants in Class III (injury: 41-100%) [3]: 16 | number of plants in Class II (injury: 10-40%) (wild type rice plants): 0
